Reference: ChEMBL document CHEMBL4715722, “Discovery and preliminary structure-activity relationship studies on tecomaquinone I and tectol as novel farnesyltransferase and plasmodial inhibitors” (Bioorg Med Chem, 2016)

Columns and labels:
[1] = Inhibition of bovine brain FTase using 3H-farnesyl diphosphate as substrate incubated for 30 mins by beta-plate counting method; design: species or system Bos taurus
[2] = Cytotoxicity against human tumor cell line; format: cell-based
Plasmodium falciparum = assay: Antiplasmodial activity against chloroquine-resistant Plasmodium falciparum FcB1 infected in erythrocyte incubated for 48 hrs by [3H]-hypoxanthine incorporation assay; format: functional, organism-based
[3] = Inhibition of Trypanosoma brucei FTase
[4] = Inhibition of partially purified human FTase using dan-syl-GCVLS peptide as substrate measured for 15 mins by fluorescence based assay
[5] = Inhibition of recombinant human FTase

IC50 [1] | Structure (SMILES) | Activity [2] | IC50 (Plasmodium falciparum) | IC50 ([3]; read-out: IC50) | IC50 [4] | IC50 [3] | IC50 [5]
150 nM | CC(=O)OC(CCCC12OC(C(=O)O)C(O)(C(=O)O)C(C(=O)O)(O1)[C@H](OC(=O)CC/C=C/C(C)CCCc1ccccc1)[C@H]2O)C(C)Cc1ccccc1 (stereo partly specified) |  |  |  |  |  | 
 | CC(C)=CCC/C(C)=C/CCc1ccc2c(c1)C(=O)c1ccccc1C2=O | Non-Toxic | > 28000 nM | 1700 nM | 1400 nM |  | 
 | CC(C)=CCCC1(C)C=Cc2c(-c3c4c(c5ccccc5c3O)OC(C)(CCC=C(C)C)C=C4)c(O)c3ccccc3c2O1 (stereo unspecified) | Non-Toxic | 10600 nM | 6100 nM | 4400 nM |  | 
100 nM | CCCCCCCCCC(=O)O[C@@H]1[C@@H](O)C2(CCCC(OC(C)=O)C(C)C/C=C/c3ccccc3)OC(C(=O)O)C(O)(C(=O)O)C1(C(=O)O)O2 (stereo partly specified) |  |  |  |  |  | 
 | CC(C)=CCC/C(C)=C/C1Oc2c(c3c(c4ccccc24)OC(C)(CCC=C(C)C)C=C3)C2=C1C(=O)c1ccccc1C2=O (stereo unspecified) | Non-Toxic | > 17000 nM | 2700 nM | 1100 nM |  | 
 | CC(C)=CCC/C(C)=C/CCC1(C)C=Cc2c3c(c4ccccc4c2O1)OC(C)(CC/C=C(\C)CCC=C(C)C)C=C3 (stereo unspecified) | Non-Toxic | > 18000 nM | 2600 nM | 1700 nM |  | 
 | CC(C)=CCCC1(C)C=Cc2c3c(c4ccccc4c2O1)OC(C)(CCC=C(C)C)C=C3 (stereo unspecified) | Non-Toxic | > 23000 nM | 7900 nM | 4400 nM |  | 
 | CC(C)=CCC/C(C)=C/CCC1(C)C=Cc2c(-c3c4c(c5ccccc5c3O)OC(C)(CC/C=C(\C)CCC=C(C)C)C=C4)c(O)c3ccccc3c2O1 (stereo unspecified) | Non-Toxic | 7050 nM | 8700 nM | 1800 nM |  | 
 | CC(C)=CCC/C(C)=C/CC/C(C)=C/C1Oc2c(c3c(c4ccccc24)OC(C)(CC/C=C(\C)CCC=C(C)C)C=C3)C2=C1C(=O)c1ccccc1C2=O (stereo unspecified) | Non-Toxic | > 14000 nM |  | 9980 nM | Not Active | 
 | CCC(CC(C)C(=O)O)C(=O)CC/C(C)=C/C(C)C/C(C)=C/C(C)C(O)C(C)CCC(CCCC/C=C/C(C)CCC(C)OC(=O)CC(CC(=O)O)C(=O)O)OC(=O)CC(CC(=O)O)C(=O)O (stereo unspecified) |  |  |  |  |  | 50 nM
100 nM | CCCCCCCC(=O)O[C@@H]1[C@@H](O)C2(CCCC(OC(C)=O)C(C)C/C=C/c3ccccc3)OC(C(=O)O)C(O)(C(=O)O)C1(C(=O)O)O2 (stereo partly specified) |  |  |  |  |  | 
 | CC(C)=CCCc1ccc2c(c1)C(=O)c1ccccc1C2=O | Non-Toxic | > 34000 nM | 1400 nM | 1500 nM |  | 
 | O=C(O)C/C(C(=O)O)=C(/CCCCCCCCCCCCCCCCOS(=O)(=O)O)C(=O)O |  |  |  |  |  | 14 nM
 | CCC(CC(C)C(=O)O)C(=O)CC/C1=C/C(C)C/C(C)=C/C(C)C(O)C(C)CCC(CCCC/C=C/C(C)CCC(C)OC(=O)CC(CC(=O)O)C(=O)O)OC(=O)CC(C(=O)O)CC(=O)OC1 (stereo unspecified) [ACTINOPLANIC ACID A] |  |  |  |  |  | 230 nM
 | CC(C)=CC1Oc2c(c3c(c4ccccc24)OC(C)(C)C=C3)C2=C1C(=O)c1ccccc1C2=O (stereo unspecified) [TECOMAQUINONE] | Non-Toxic | > 22000 nM | 112 nM | 65 nM |  | 
 | CC1(C)C=Cc2c(-c3c4c(c5ccccc5c3O)OC(C)(C)C=C4)c(O)c3ccccc3c2O1 [tectol] | Non-Toxic | 3440 nM | 1730 nM | 2090 nM |  | 
